Results taken from patent US12162872B2, “Cycloalkylurea derivative” (Sumitomo Pharma Co., Ltd., priority 2019, dated 2024).

Biological target: T1, Human orexin receptor type 2 (Homo sapiens, UniProt O43614)
T1 construct: expressed in transfected cells; host or cells: CHO cells (transient expression)
T1 sequence (O43614 1-444): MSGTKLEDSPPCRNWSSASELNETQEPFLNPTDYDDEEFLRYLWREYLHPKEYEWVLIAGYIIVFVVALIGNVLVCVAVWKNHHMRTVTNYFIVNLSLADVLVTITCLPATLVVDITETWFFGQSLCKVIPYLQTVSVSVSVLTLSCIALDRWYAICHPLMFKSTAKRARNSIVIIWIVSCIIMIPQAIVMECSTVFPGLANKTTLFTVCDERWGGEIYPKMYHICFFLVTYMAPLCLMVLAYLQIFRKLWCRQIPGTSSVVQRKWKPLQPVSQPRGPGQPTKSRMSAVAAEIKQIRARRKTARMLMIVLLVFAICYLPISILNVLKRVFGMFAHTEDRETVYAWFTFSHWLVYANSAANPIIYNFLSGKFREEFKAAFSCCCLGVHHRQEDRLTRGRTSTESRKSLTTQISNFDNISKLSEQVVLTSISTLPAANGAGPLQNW
Experiment: Test 1: Evaluation of agonist activity for orexin receptor type 2 (aequorin luminescence, intracellular calcium mobilization in CHO cells)
Type: cell-based
Settings: relative percentage of luminescence for the luminescence (100%) of Orexin A (100 pM); CHO cells transiently expressing human orexin receptor type 2 and apoaequorin; Orexin A Lot. 641114
Procedure: Test 1: Evaluation of Agonist Activity for Orexin Receptor Type 2
Human orexin receptor type 2 and apoaequorin were transiently expressed in CHO cells, and the agonist activity was evaluated based on intracellular calcium mobilization with ligand stimulation. The CHO cells transiently-expressed human orexin receptor type 2 and apoaequorin were seeded on a 384-well plate by 2,000 cells/well, and then incubated for 16-22 hours. After the plate was returned to room temperature, Coelenterazine hcp (final concentration: 1 μM) was added to the plate, and the plate was allowed to stand at room temperature for 2 hours. And then, Orexin A (PEPTIDE INSTITUTE, INC., Lot. 641114) or each test compound was added to the plate, and the luminescence of the cells was measured with FDSS7000 (Hamamatsu Photonics K.K.), wherein Orexin A and each test compound were dissolved in DMSO (final concentration: 0.1%), and diluted with a buffer (Hanks, 20 mM HEPES, 0.1% BSA). The agonist activity of each test compound for orexin receptor type 2 was calculated as relative percentage of luminescence for the luminescence (100%) of Orexin A (100 pM).

Structure (SMILES) | agonist activity (%)
CCN1CCN([C@H]2CCCC[C@H]2NC(=O)N2CCC(c3ccc(C)cc3)CC2)CC1 (racemic) [Example 2, rac-N-[(1R,2S)-2-(4-ethylpiperazin-1-yl)cyclohexyl]-4-(4-methylphenyl)piperidine-1-carboxamide] | 58
Cc1nc(C2(C)CCN(C(=O)N[C@H]3CCCC[C@@H]3N3CCN(C(C)C)CC3)CC2)no1 (racemic) [Example 3, rac-4-methyl-4-(5-methyl-1,2,4-oxadiazol-3-yl)-N-{(1S,2S)-2-[4-(propan-2-yl)piperazin-1-yl]cyclohexyl}piperidine-1-carboxamide] | 67
CO[C@H]1CCC[C@H](N2CCN(C(C)C)CC2)[C@H]1NC(=O)N1CCC(c2ccc(C)cc2)CC1 (racemic) [Example 4, rac-N-{(1R,2S,6S)-2-methoxy-6-[4-(propan-2-yl)piperazin-1-yl]cyclohexyl}-4-(4-methylphenyl)piperidine-1-carboxamide] | 62
Cc1ccc(C2CCN(C(=O)N[C@H]3CCC[C@@H]3N3CCN(C(C)C)CC3)CC2)cc1 (racemic) [Example 5, rac-4-(4-methylphenyl)-N-{(1S,2S)-2-[4-(propan-2-yl)piperazin-1-yl]cyclopentyl}piperidine-1-carboxamide] | 103
CC(C)N1CCN([C@H]2CCC[C@@H]2NC(=O)N2CCC(C)(c3cc(C4CC4)on3)CC2)CC1 (racemic) [Example 6, rac-4-(5-cyclopropyl-1,2-oxazol-3-yl)-4-methyl-N-{(1S,2S)-2-[4-(propan-2-yl)piperazin-1-yl]cyclopentyl}piperidine-1-carboxamide] | 43
CC(C)N1CCN([C@H]2[C@H](NC(=O)N3CCC(C)(c4noc(C5CC5)n4)CC3)CCCC2(F)F)CC1 (racemic) [Example 7, rac-4-(5-cyclopropyl-1,2,4-oxadiazol-3-yl)-N-{(1R,2S)-3,3-difluoro-2-[4-(propan-2-yl)piperazin-1-yl]cyclohexyl}-4-methylpiperidine-1-carboxamide] | 75
Cc1ccc(C2CCN(C(=O)N[C@@H]3[C@@H](N4CCN(C(C)C)CC4)CCCC3(F)F)CC2)cc1 (racemic) [Example 8, rac-N-{(1R,6S)-2,2-difluoro-6-[4-(propan-2-yl)piperazin-1-yl]cyclohexyl}-4-(4-methylphenyl)piperidine-1-carboxamide] | 207
CC(C)N1CCN([C@H]2CCCC(F)(F)[C@@H]2OC(=O)N2CCC(C)(c3noc(C4CC4)n3)CC2)CC1 (racemic) [Example 9, rac-(1R,6S)-2,2-difluoro-6-[4-(propan-2-yl)piperazin-1-yl]cyclohexyl 4-(5-cyclopropyl-1,2,4-oxadiazol-3-yl)-4-methylpiperidine-1-carboxylate] | 207
Cc1nc(C2(C)CCN(C(=O)O[C@@H]3[C@@H](N4CCN(C(C)C)CC4)CCCC3(F)F)CC2)no1 (racemic) [Example 10, rac-(1R,6S)-2,2-difluoro-6-[4-(propan-2-yl)piperazin-1-yl]cyclohexyl 4-methyl-4-(5-methyl-1,2,4-oxadiazol-3-yl)piperidine-1-carboxylate] | 213
CC(C)N1CCN([C@H]2CCCC(F)(F)[C@@H]2OC(=O)N2CCC(C)(c3cc(C4CC4)on3)CC2)CC1 (racemic) [Example 11, rac-(1R,6S)-2,2-difluoro-6-[4-(propan-2-yl)piperazin-1-yl]cyclohexyl 4-(5-cyclopropyl-1,2-oxazol-3-yl)-4-methylpiperidine-1-carboxylate] | 211
CC(C)N1CCN([C@H]2CCCC(F)(F)[C@@H]2OC(=O)N2CCC(C)(c3ncn(C4CC4)n3)CC2)CC1 (racemic) [Example 13, rac-(1R,6S)-2,2-difluoro-6-[4-(propan-2-yl)piperazin-1-yl]cyclohexyl 4-(1-cyclopropyl-1H-1,2,4-triazol-3-yl)-4-methylpiperidine-1-carboxylate] | 56
CC(C)c1ccc(C2=CCCCC2NC(=O)N2CCC(C)(c3cc(C4CC4)on3)CC2)cn1 (racemic) [Example 15, rac-4-(5-cyclopropyl-1,2-oxazol-3-yl)-4-methyl-N-{2-[6-(propan-2-yl)pyridin-3-yl]cyclohex-2-en-1-yl}piperidine-1-carboxamide] | 62
CC(C)c1ccc(C2=CCCCC2NC(=O)N2CCC(C)(c3noc(C4CC4)n3)CC2)cn1 (racemic) [Example 16, rac-4-(5-cyclopropyl-1,2,4-oxadiazol-3-yl)-4-methyl-N-{2-[6-(propan-2-yl)pyridin-3-yl]cyclohex-2-en-1-yl}piperidine-1-carboxamide] | 39
CCN1CCN([C@H]2CCCC[C@@H]2NC(=O)N2CCC(c3ccc(C)cc3)CC2)CC1 (racemic) [Example 17, rac-N-[(1S,2S)-2-(4-Ethylpiperazin-1-yl)cyclohexyl]-4-(4-methylphenyl)piperidine-1-carboxamide] | 72
CC(C)N1CC=C(C2=CCCCC2NC(=O)N2CCC(C)(c3noc(C4CC4)n3)CC2)CC1 (racemic) [Example 18, rac-4-(5-Cyclopropyl-1,2,4-oxadiazol-3-yl)-4-methyl-N-{2-[1-(propan-2-yl)-1,2,3,6-tetrahydropyridin-4-yl]cyclohex-2-en-1-yl}piperidine-1-carboxamide] | 73
CC(C)N1CCN([C@H]2CCCC(F)(F)[C@@H]2NC(=O)N2CCC(C)(c3noc(C4CC4)n3)CC2)CC1 (racemic) [Example 19, rac-4-(5-Cyclopropyl-1,2,4-oxadiazol-3-yl)-N-{(1R,6S)-2,2-difluoro-6-[4-(propan-2-yl)piperazin-1-yl]cyclohexyl}-4-methylpiperidine-1-carboxamide] | 167
CC(C)N1CCN([C@H]2CCCC(F)(F)[C@@H]2NC(=O)N2CCC(C)(c3cc(C4CC4)on3)CC2)CC1 (racemic) [Example 20, rac-4-(5-cyclopropyl-1,2-oxazol-3-yl)-N-{(1R,6S)-2,2-difluoro-6-[4-(propan-2-yl)piperazin-1-yl]cyclohexyl}-4-methylpiperidine-1-carboxamide] | 160
CC(C)N1CCN([C@H]2CCCC(F)(F)[C@@H]2NC(=O)N2CCC(C)(c3nc4ccccc4o3)CC2)CC1 (racemic) [Example 21, rac-4-(1,3-benzoxazol-2-yl)-N-{(1R,6S)-2,2-difluoro-6-[4-(propan-2-yl)piperazin-1-yl]cyclohexyl}-4-methylpiperidine-1-carboxamide] | 153
CC(C)N1CCN([C@H]2CCCC(F)(F)[C@@H]2NC(=O)N2CCC(C)(C3CCCC3)CC2)CC1 (racemic) [Example 26, rac-4-cyclopentyl-N-{(1R,6S)-2,2-difluoro-6-[4-(propan-2-yl)piperazin-1-yl]cyclohexyl}-4-methylpiperidine-1-carboxamide] | 198
CC(C)N1CCN([C@H]2CCCC(F)(F)[C@@H]2NC(=O)N2CCC(C)(c3nc4c(o3)CCCC4)CC2)CC1 (racemic) [Example 27, rac-N-{(1R,6S)-2,2-difluoro-6-[4-(propan-2-yl)piperazin-1-yl]cyclohexyl}-4-methyl-4-(4,5,6,7-tetrahydro-1,3-benzoxazol-2-yl)piperidine-1-carboxamide] | 162
CCc1nc(C2(C)CCN(C(=O)N[C@@H]3[C@@H](N4CCN(C(C)C)CC4)CCCC3(F)F)CC2)no1 (racemic) [Example 28, rac-N-{(1R,6S)-2,2-difluoro-6-[4-(propan-2-yl)piperazin-1-yl]cyclohexyl}-4-(5-ethyl-1,2,4-oxadiazol-3-yl)-4-methylpiperidine-1-carboxamide] | 190
CC(C)N1CCN([C@H]2CCCC(F)(F)[C@@H]2NC(=O)N2CCC(C)(c3ncn(C4CC4)n3)CC2)CC1 (racemic) [Example 29, rac-4-(1-cyclopropyl-?H-1,2,4-triazol-3-yl)-N-{(1R,6S)-2,2-difluoro-6-[4-(propan-2-yl)piperazin-1-yl]cyclohexyl}-4-methylpiperidine-1-carboxamide] | 109
CC(C)N1CCN([C@H]2CCCC(F)(F)[C@@H]2NC(=O)N2CCC(C)(C3CCC(F)(F)CC3)CC2)CC1 (racemic) [Example 30, rac-4-(4,4-difluorocyclohexyl)-N-{(1R,6S)-2,2-difluoro-6-[4-(propan-2-yl)piperazin-1-yl]cyclohexyl}-4-methylpiperidine-1-carboxamide] | 128
